Measured values as given in PMC4988494 (Nature, 2015).

What was measured:
[1] = biological target: A. niger Fdc^UbiX (A. niger Fdc1) (Aspergillus niger, UniProt A2QHE5); assay: UV-Vis and activity, reversible inhibition; type: biochemical; conditions: prFMN-loaded enzyme
[2] = biological target: Aspergillus niger Fdc1 (Aspergillus niger) (UniProt A2QHE5); assay: native MS

O=CCc1ccccc1 [phenylacetaldehyde]
UV-Vis and activity, reversible inhibition [1]: incubation with phenylpyruvate or phenylacetaldehyde leads to reversible enzyme inhibition

Aspergillus niger Fdc1 (from UniProt A2QHE5 1-500) (enzyme)
stoichiometry N [2]: 2
